# From patent US20110097426A1, “Methods for Safe and Effective Treatment Using Oxazaphosphorine Drugs” (Accentia Biopharmaceuticals, Inc., priority 2007, published 2011)
# Where two headings read alike, the source gives them in different places.
# What was measured:
# [1] = system: white blood cell (WBC) count
# Procedure: Nine patients were treated 50 mg/kg/day cyclophosphamide intravenously for four days (on Day-3 to Day 0).
# On Day 6, (six days after completion of high-dose cyclophosphamide treatment), patients received G-CSF.
# [2] = system: patients with aggressive relapsing-remitting multiple sclerosis
# Source text: All 9 patients had aggressive relapsing-remitting multiple sclerosis, 8 of whom failed conventional therapy and 1 was untreated. Median age at time of entry was 29 years (range of 20 to 47 years). The mean number of gadolinium enhancing lesions on baseline MRI was 6.5 (range 3-11).
compound,measurement,setting,value
O=P1(N(CCCl)CCCl)NCCCO1 (stereo not shown) [cyclophosphamide],minimum WBC,[1]; patient HiCy01,70
same,minimum WBC,[1]; patient HiCy07,6
same,minimum WBC count,[1]; patient HiCy11,24
same,minimum WBC,[1]; patient HiCy14,31
same,minimum WBC count,[1]; patient HiCy19,50
same,WBC count,"[1]; patients HiCy05 and HiCy13, within two weeks of treatment",0
same,minimum WBC count,[1]; patients HiCy09 and HiCy15 (both),12
same,reduction in disability (EDSS),"[2]; 50 mg/kg/day i.v. for four days, 9 patients",50%
same,reduction in gadolinium enhancements,"[2]; at 6 months, 50 mg/kg/day i.v. for four days, 9 patients",90%
same,reduction in gadolinium enhancements,"[2]; by 18 months, 50 mg/kg/day i.v. for four days, 9 patients",94%
same,adverse outcomes,[2]; initial cohort of 9 patients with severe relapsing MS,no significant adverse outcomes
same,patients having no disability (EDSS score of 0),[2]; of 9 patients,3 patients
same,patients with EDSS score of 1,[2]; of 9 patients,1 patient
same,patients with an exacerbation during follow-up,"[2]; of 9 patients, started on conventional MS therapy at 18 months",one
same,gadolinium enhancing lesions (GEL) at subsequent follow-up visits,[2]; patient HiCy01,did not have any GEL
same,gadolinium enhancing lesions (GEL) at follow-up,"[2]; patients HiCy05 and HiCy13, up to 24 months follow-up",no gadolinium enhancing lesions
same,gadolinium enhancing lesions (GEL) on follow-up MRIs,"[2]; patients HiCy07 and HiCy14, who first went to 0 GEL",a single GEL
same,gadolinium enhancing lesions (GEL),[2]; patients HiCy09 and HiCy15,0
same,gadolinium enhancing lesions (GEL) at follow-up,[2]; patients HiCy11 and HiCy19 (HiCy19 only 6 months of follow-up),always had GEL on every follow up
